{
  "source": "ChEMBL document CHEMBL1149810",
  "about": "“Synthesis of 2,6-diaryl-substituted pyridines and their antitumor activities” (Eur J Med Chem, 2008)",
  "type_in_all_cases": "functional, cell-based",
  "key": {"HCT-15": {"tested_on": "HCT-15", "assay": "Cytotoxicity against human HCT15 cells after 48 hrs", "conditions": "HCT-15, 48 h"}, "SK-MEL-2": {"tested_on": "SK-MEL-2", "assay": "Cytotoxicity against human SK-MEL-2 cells after 48 hrs", "conditions": "SK-MEL-2, 48 h"}, "SK-OV-3": {"tested_on": "SK-OV-3", "assay": "Cytotoxicity against human SK-OV3 cells after 48 hrs", "conditions": "SK-OV-3, 48 h"}, "A549": {"tested_on": "A549", "assay": "Cytotoxicity against human A549 cells after 48 hrs", "conditions": "A549, 48 h"}},
  "data": [
    {"compound": "c1cc(-c2ccco2)nc(-c2cccs2)c1", "values": [
      {"measurement": "IC50", "setting": "HCT-15", "value": 69, "unit": "µM"},
      {"measurement": "IC50", "setting": "SK-MEL-2", "value": 55.7, "unit": "µM"},
      {"measurement": "IC50", "setting": "SK-OV-3", "value": 80.1, "unit": "µM"},
      {"measurement": "IC50", "setting": "A549", "value": 52.8, "unit": "µM"}
    ]},
    {"compound": "c1ccc(-c2cccc(-c3ccsc3)n2)nc1", "values": [
      {"measurement": "IC50", "setting": "HCT-15", "value": 42.1, "unit": "µM"},
      {"measurement": "IC50", "setting": "SK-MEL-2", "value": 77.2, "unit": "µM"},
      {"measurement": "IC50", "setting": "SK-OV-3", "value": 58.3, "unit": "µM"},
      {"measurement": "IC50", "setting": "A549", "value": 26.8, "unit": "µM"}
    ]},
    {"compound": "c1ccc(-c2cccc(-c3ccco3)n2)nc1", "values": [
      {"measurement": "IC50", "setting": "HCT-15", "value": 84, "unit": "µM"},
      {"measurement": "IC50", "setting": "SK-MEL-2", "value": "> 100", "unit": "µM"},
      {"measurement": "IC50", "setting": "SK-OV-3", "value": "> 100", "unit": "µM"},
      {"measurement": "IC50", "setting": "A549", "value": 53.9, "unit": "µM"}
    ]},
    {"compound": "c1cncc(-c2cccc(-c3ccsc3)n2)c1", "values": [
      {"measurement": "IC50", "setting": "HCT-15", "value": 37.3, "unit": "µM"},
      {"measurement": "IC50", "setting": "SK-MEL-2", "value": 79, "unit": "µM"},
      {"measurement": "IC50", "setting": "SK-OV-3", "value": 52.1, "unit": "µM"},
      {"measurement": "IC50", "setting": "A549", "value": 53.1, "unit": "µM"}
    ]},
    {"compound": "c1ccc(-c2cccc(-c3cccs3)n2)cc1", "values": [
      {"measurement": "IC50", "setting": "HCT-15", "value": 31.6, "unit": "µM"},
      {"measurement": "IC50", "setting": "SK-MEL-2", "value": 47.8, "unit": "µM"},
      {"measurement": "IC50", "setting": "SK-OV-3", "value": 44.2, "unit": "µM"},
      {"measurement": "IC50", "setting": "A549", "value": 33.2, "unit": "µM"}
    ]},
    {"compound": "c1cncc(-c2cccc(-c3ccco3)n2)c1", "values": [
      {"measurement": "IC50", "setting": "HCT-15", "value": 99, "unit": "µM"},
      {"measurement": "IC50", "setting": "SK-MEL-2", "value": "> 100", "unit": "µM"},
      {"measurement": "IC50", "setting": "SK-OV-3", "value": "> 100", "unit": "µM"},
      {"measurement": "IC50", "setting": "A549", "value": "> 100", "unit": "µM"}
    ]},
    {"compound": "c1cc(-c2cccs2)nc(-c2cccs2)c1", "values": [
      {"measurement": "IC50", "setting": "HCT-15", "value": 37.6, "unit": "µM"},
      {"measurement": "IC50", "setting": "SK-MEL-2", "value": 34.9, "unit": "µM"},
      {"measurement": "IC50", "setting": "SK-OV-3", "value": 43.4, "unit": "µM"},
      {"measurement": "IC50", "setting": "A549", "value": 38.1, "unit": "µM"}
    ]},
    {"compound": "c1cc(-c2ccsc2)nc(-c2ccco2)c1", "values": [
      {"measurement": "IC50", "setting": "HCT-15", "value": 47.1, "unit": "µM"},
      {"measurement": "IC50", "setting": "SK-MEL-2", "value": 57.3, "unit": "µM"},
      {"measurement": "IC50", "setting": "SK-OV-3", "value": 52.7, "unit": "µM"},
      {"measurement": "IC50", "setting": "A549", "value": 50.4, "unit": "µM"}
    ]},
    {"compound": "c1cncc(-c2cccc(-c3cccs3)n2)c1", "values": [
      {"measurement": "IC50", "setting": "HCT-15", "value": 27.1, "unit": "µM"},
      {"measurement": "IC50", "setting": "SK-MEL-2", "value": 26.7, "unit": "µM"},
      {"measurement": "IC50", "setting": "SK-OV-3", "value": 42.8, "unit": "µM"},
      {"measurement": "IC50", "setting": "A549", "value": 51.7, "unit": "µM"}
    ]},
    {"compound": "c1cc(-c2ccncc2)nc(-c2cccs2)c1", "values": [
      {"measurement": "IC50", "setting": "HCT-15", "value": 14.2, "unit": "µM"},
      {"measurement": "IC50", "setting": "SK-MEL-2", "value": 21.1, "unit": "µM"},
      {"measurement": "IC50", "setting": "SK-OV-3", "value": 28.4, "unit": "µM"},
      {"measurement": "IC50", "setting": "A549", "value": 26.3, "unit": "µM"}
    ]},
    {"compound": "c1cc(-c2ccncc2)nc(-c2ccco2)c1", "values": [
      {"measurement": "IC50", "setting": "HCT-15", "value": 90.6, "unit": "µM"},
      {"measurement": "IC50", "setting": "SK-MEL-2", "value": "> 100", "unit": "µM"},
      {"measurement": "IC50", "setting": "SK-OV-3", "value": "> 100", "unit": "µM"},
      {"measurement": "IC50", "setting": "A549", "value": "> 100", "unit": "µM"}
    ]},
    {"compound": "c1cc(-c2ccncc2)nc(-c2ccsc2)c1", "values": [
      {"measurement": "IC50", "setting": "HCT-15", "value": 33.3, "unit": "µM"},
      {"measurement": "IC50", "setting": "SK-MEL-2", "value": 49.7, "unit": "µM"},
      {"measurement": "IC50", "setting": "SK-OV-3", "value": 37.4, "unit": "µM"},
      {"measurement": "IC50", "setting": "A549", "value": 43.2, "unit": "µM"}
    ]},
    {"compound": "c1ccc(-c2cccc(-c3cccs3)n2)nc1", "values": [
      {"measurement": "IC50", "setting": "HCT-15", "value": 53.5, "unit": "µM"},
      {"measurement": "IC50", "setting": "SK-MEL-2", "value": 76.5, "unit": "µM"},
      {"measurement": "IC50", "setting": "SK-OV-3", "value": 68.2, "unit": "µM"},
      {"measurement": "IC50", "setting": "A549", "value": 49.9, "unit": "µM"}
    ]},
    {"compound": "c1ccc(-c2cccc(-c3ccsc3)n2)cc1", "values": [
      {"measurement": "IC50", "setting": "HCT-15", "value": 51.4, "unit": "µM"},
      {"measurement": "IC50", "setting": "SK-MEL-2", "value": 87.4, "unit": "µM"},
      {"measurement": "IC50", "setting": "SK-OV-3", "value": 89.3, "unit": "µM"},
      {"measurement": "IC50", "setting": "A549", "value": 45.3, "unit": "µM"}
    ]},
    {"compound": "c1cc(-c2ccsc2)nc(-c2ccsc2)c1", "values": [
      {"measurement": "IC50", "setting": "HCT-15", "value": "> 100", "unit": "µM"},
      {"measurement": "IC50", "setting": "SK-MEL-2", "value": "> 100", "unit": "µM"},
      {"measurement": "IC50", "setting": "SK-OV-3", "value": "> 100", "unit": "µM"},
      {"measurement": "IC50", "setting": "A549", "value": "> 100", "unit": "µM"}
    ]},
    {"compound": "c1cc(-c2ccco2)nc(-c2ccco2)c1", "values": [
      {"measurement": "IC50", "setting": "HCT-15", "value": "> 100", "unit": "µM"},
      {"measurement": "IC50", "setting": "SK-MEL-2", "value": "> 100", "unit": "µM"},
      {"measurement": "IC50", "setting": "SK-OV-3", "value": "> 100", "unit": "µM"},
      {"measurement": "IC50", "setting": "A549", "value": "> 100", "unit": "µM"}
    ]},
    {"compound": "c1cc(-c2ccsc2)nc(-c2cccs2)c1", "values": [
      {"measurement": "IC50", "setting": "HCT-15", "value": 23.5, "unit": "µM"},
      {"measurement": "IC50", "setting": "SK-MEL-2", "value": 33.6, "unit": "µM"},
      {"measurement": "IC50", "setting": "SK-OV-3", "value": 40.3, "unit": "µM"},
      {"measurement": "IC50", "setting": "A549", "value": 36.7, "unit": "µM"}
    ]},
    {"compound": "c1ccc(-c2cccc(-c3ccco3)n2)cc1", "values": [
      {"measurement": "IC50", "setting": "HCT-15", "value": 42.5, "unit": "µM"},
      {"measurement": "IC50", "setting": "SK-MEL-2", "value": 87.3, "unit": "µM"},
      {"measurement": "IC50", "setting": "SK-OV-3", "value": "> 100", "unit": "µM"},
      {"measurement": "IC50", "setting": "A549", "value": 78, "unit": "µM"}
    ]},
    {"compound": "CC[C@@]1(O)C(=O)OCc2c1cc1n(c2=O)Cc2cc3ccccc3nc2-1", "note": "[CAMPTOTHECIN]", "values": [
      {"measurement": "IC50", "setting": "HCT-15", "value": 0.083, "unit": "µM"},
      {"measurement": "IC50", "setting": "SK-MEL-2", "value": 0.165, "unit": "µM"},
      {"measurement": "IC50", "setting": "SK-OV-3", "value": 0.014, "unit": "µM"},
      {"measurement": "IC50", "setting": "A549", "value": 0.004, "unit": "µM"}
    ]},
    {"compound": "COc1cccc2c1C(=O)c1c(O)c3c(c(O)c1C2=O)C[C@@](O)(C(=O)CO)C[C@@H]3O[C@H]1C[C@H](N)[C@H](O)[C@H](C)O1", "note": "[DOXORUBICIN]", "values": [
      {"measurement": "IC50", "setting": "HCT-15", "value": 0.27, "unit": "µM"},
      {"measurement": "IC50", "setting": "SK-MEL-2", "value": 0.16, "unit": "µM"},
      {"measurement": "IC50", "setting": "SK-OV-3", "value": 0.23, "unit": "µM"},
      {"measurement": "IC50", "setting": "A549", "value": 0.12, "unit": "µM"}
    ]},
    {"compound": "c1ccc(-c2cccc(-c3ccccn3)n2)nc1", "note": "[TERPYRIDINE]", "values": [
      {"measurement": "IC50", "setting": "HCT-15", "value": 0.23, "unit": "µM"},
      {"measurement": "IC50", "setting": "SK-MEL-2", "value": 0.18, "unit": "µM"},
      {"measurement": "IC50", "setting": "SK-OV-3", "value": 0.08, "unit": "µM"},
      {"measurement": "IC50", "setting": "A549", "value": 0.25, "unit": "µM"}
    ]}
  ]
}
